Patent publication US20170232031A1, “Inhibitors of Zika Virus” (Riboscience LLC, priority 2016, published 2017)
Where two headings read alike, the source gives them in different places.

What was measured:
[1] = system: ZIKV strain MR766 (Genbank LC002520); test: Antiviral activity against ZIKV replication in cells; type: cell-based, Zika virus
Experimental: (§1) The human hepatoma cell line Huh-7, are cultured in DMEM without phenol-red (Cellgro Mediatech, Cat #10-013-CV containing 4.5 g/l glucose, L-glutamine & sodium pyruvate). The medium is further supplemented with 10% (v/v) FBS (ATLAS Cat # F-0500-A, lot#850114A) and 1% (vlv) penicillin/streptomycin (Cellgro Mediatech #30-022-CI). Cells are maintained at 37° C. in a humidified 5% CO2 atmosphere. Zika virus representative strain titers are measured on BHK-21 cells, using a standard plaque assay procedure. For the determination of EC50 of nucleoside in the antiviral assay, Huh-7 cells are plated in white 96-well plates in MEM media supplemented with 10% FBS and 1% penicillin/streptomycin. After incubation for 24 h, the cells are infected at a multiplicity of infection (MOI) of 0.5 for 2 h at 37° C. Ten three-fold dilutions of compounds are prepared in the same media supplemented with 1% DMSO. After the 2 h adsorption phase, the virus is aspirated off and diluted compound is added to four wells each. Huh-7 cells are plated as described above and exposed to the same concentration range of compounds. Untreated cells are carried along as a control. After a 3-day incubation at 37° C., the cell viability is determined using Cell-titer Glo™ reagent (Promega, Madison, Wis.) that is added to each well and incubated for 5 min. Plates are analyzed using a Thermo Luminoskan plate reader (Waltham, Mass.).

[2] = Cell viability (CC50) alongside ZIKV antiviral assay, Cell-titer Glo; type: cell-based; details: human, Huh-7 cells
Experimental: as §1

[3] = system: HCV replicon of genotype 1a (H77); test: HCV replicon genotype 1a antiviral activity; type: cell-based; details: Hepatitis C virus; replicon genotype 1a (H77); read-out: HCV GT1a EC50
[4] = Cytotoxicity (CC50) alongside HCV GT1a replicon assay; type: cell-based; details: HCV GT1a (H77) replicon cells; replicon genotype 1a (H77)
[5] = system: HCV replicon of genotype 1b (Con1); test: HCV replicon genotype 1b antiviral activity; type: cell-based; details: Hepatitis C virus; replicon genotype 1b (Con1); read-out: HCV GT1b EC50
human RNA polymerase I [6] = molecular target: T1, human RNA polymerase I (Homo sapiens, UniProt O95602+Q9H9Y6); test: RNA polymerase I specific reporter gene assay in HeLa cells; type: cell-based; details: 10 or 100 μM (highest soluble concentrations)
T1 construct: endogenous in cells; host or cells: HeLa

human RNA polymerase II [7] = molecular target: T2, human RNA polymerase II (Homo sapiens, UniProt P24928+P30876); test: RNA polymerase II specific reporter gene assay in HeLa cells; type: cell-based; details: 10 or 100 μM (highest soluble concentrations)
T2 construct: endogenous in cells; host or cells: HeLa

human RNA polymerase III [8] = molecular target: T3, human RNA polymerase III (Homo sapiens, UniProt O14802+Q9NW08); test: RNA polymerase III specific reporter gene assay in HeLa cells; type: cell-based; details: 10 or 100 μM (highest soluble concentrations)
T3 construct: endogenous in cells; host or cells: HeLa

[9] = Solubility in cell culture medium / aqueous media; details: plasma or biological fluid
[10] = Cytotoxicity (CC50) alongside HCV GT1b replicon assay; details: HCV GT1b (Con1) replicon cells
[11] = molecular target: T4, mitochondrial DNA polymerase pol γ (Homo sapiens, UniProt P54098); test: Inhibition of mitochondrial DNA polymerase pol γ; type: biochemical; details: read-out: DNA pol γ IC50
T4 sequence (P54098 1-1239): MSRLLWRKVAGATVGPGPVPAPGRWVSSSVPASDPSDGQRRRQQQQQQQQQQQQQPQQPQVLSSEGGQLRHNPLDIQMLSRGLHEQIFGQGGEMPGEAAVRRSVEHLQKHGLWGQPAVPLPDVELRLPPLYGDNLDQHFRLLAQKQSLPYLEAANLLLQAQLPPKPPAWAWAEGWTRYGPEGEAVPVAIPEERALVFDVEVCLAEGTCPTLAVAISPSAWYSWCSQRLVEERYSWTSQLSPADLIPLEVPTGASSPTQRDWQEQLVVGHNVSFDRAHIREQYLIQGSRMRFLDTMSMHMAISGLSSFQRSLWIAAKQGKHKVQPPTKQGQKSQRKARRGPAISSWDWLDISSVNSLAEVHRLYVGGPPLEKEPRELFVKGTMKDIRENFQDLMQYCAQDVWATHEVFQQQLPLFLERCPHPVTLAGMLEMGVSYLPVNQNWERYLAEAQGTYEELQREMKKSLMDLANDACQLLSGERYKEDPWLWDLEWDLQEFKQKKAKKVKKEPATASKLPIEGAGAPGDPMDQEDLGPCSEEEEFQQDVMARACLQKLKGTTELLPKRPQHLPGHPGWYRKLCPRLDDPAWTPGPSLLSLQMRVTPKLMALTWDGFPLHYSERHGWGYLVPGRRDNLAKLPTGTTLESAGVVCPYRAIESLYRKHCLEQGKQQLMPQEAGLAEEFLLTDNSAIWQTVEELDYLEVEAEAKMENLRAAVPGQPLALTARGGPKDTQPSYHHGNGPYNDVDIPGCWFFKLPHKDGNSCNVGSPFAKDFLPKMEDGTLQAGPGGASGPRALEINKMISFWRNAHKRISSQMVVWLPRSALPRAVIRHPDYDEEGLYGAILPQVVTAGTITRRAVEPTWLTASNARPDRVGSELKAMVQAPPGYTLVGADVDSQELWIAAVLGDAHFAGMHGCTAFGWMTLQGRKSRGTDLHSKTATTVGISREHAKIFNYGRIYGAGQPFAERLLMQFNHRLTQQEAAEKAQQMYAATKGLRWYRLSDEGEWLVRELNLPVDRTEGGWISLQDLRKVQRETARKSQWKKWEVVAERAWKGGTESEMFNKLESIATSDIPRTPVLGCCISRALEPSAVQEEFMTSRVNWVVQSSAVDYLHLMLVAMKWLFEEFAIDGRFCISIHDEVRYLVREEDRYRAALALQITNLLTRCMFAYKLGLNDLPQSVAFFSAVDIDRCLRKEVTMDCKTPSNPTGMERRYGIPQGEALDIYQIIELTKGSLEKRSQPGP

human DNA polymerase α = molecular target: T5, human DNA polymerase α (Homo sapiens, UniProt P09884); test: Inhibition of human DNA polymerase α; type: biochemical
T5 sequence (P09884 1-1462): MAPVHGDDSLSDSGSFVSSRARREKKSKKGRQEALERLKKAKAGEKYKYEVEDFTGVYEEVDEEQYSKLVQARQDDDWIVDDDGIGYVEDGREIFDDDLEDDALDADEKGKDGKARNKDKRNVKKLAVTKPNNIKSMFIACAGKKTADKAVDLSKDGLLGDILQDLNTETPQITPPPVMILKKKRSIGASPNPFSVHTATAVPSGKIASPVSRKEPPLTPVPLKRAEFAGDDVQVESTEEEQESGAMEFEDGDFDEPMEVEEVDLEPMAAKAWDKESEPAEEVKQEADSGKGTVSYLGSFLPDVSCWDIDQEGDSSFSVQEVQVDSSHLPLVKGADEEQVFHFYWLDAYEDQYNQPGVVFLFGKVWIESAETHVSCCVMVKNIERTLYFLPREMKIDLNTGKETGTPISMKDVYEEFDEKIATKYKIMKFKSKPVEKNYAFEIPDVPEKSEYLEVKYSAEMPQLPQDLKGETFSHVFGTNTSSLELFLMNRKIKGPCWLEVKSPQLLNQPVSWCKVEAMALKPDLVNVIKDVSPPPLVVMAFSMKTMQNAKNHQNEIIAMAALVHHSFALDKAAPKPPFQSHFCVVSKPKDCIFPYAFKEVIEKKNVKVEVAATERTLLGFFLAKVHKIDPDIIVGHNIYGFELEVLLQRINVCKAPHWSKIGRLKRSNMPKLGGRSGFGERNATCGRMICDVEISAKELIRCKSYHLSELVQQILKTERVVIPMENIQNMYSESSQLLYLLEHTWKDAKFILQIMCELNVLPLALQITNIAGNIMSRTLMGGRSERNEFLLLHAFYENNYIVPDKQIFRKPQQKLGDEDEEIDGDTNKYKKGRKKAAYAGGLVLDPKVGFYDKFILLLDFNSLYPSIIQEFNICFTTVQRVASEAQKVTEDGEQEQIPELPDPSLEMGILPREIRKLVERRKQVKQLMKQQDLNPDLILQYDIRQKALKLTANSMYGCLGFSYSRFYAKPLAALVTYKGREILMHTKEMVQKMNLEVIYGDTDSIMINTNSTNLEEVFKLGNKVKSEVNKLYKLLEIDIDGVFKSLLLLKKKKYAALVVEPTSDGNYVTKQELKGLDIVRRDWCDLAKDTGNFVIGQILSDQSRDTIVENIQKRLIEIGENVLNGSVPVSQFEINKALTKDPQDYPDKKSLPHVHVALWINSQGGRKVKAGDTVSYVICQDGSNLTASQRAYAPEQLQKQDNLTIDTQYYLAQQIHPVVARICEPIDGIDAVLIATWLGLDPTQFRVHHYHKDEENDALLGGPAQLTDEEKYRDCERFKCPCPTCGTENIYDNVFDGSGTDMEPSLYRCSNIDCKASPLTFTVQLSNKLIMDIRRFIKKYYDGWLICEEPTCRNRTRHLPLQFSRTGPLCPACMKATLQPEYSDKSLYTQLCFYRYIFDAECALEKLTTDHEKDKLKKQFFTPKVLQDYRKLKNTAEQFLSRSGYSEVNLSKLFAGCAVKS

human DNA polymerase β = human DNA polymerase β (Homo sapiens, UniProt P06746); test: Inhibition of human DNA polymerase β; type: biochemical
human RNA polymerase I [12] = molecular target: T1, human RNA polymerase I; test: Human RNA polymerase I activity in cell extracts; type: biochemical
human RNA polymerase II [13] = molecular target: T2, human RNA polymerase II; test: Human RNA polymerase II activity in cell extracts; type: biochemical
human RNA polymerase III [14] = molecular target: T3, human RNA polymerase III; test: Human RNA polymerase III activity in cell extracts; type: biochemical
HCV polymerase = HCV polymerase (Hepatitis C virus genotype 1a, UniProt P27958); test: Inhibition of HCV polymerase; type: biochemical
Dengue virus polymerase = Dengue virus polymerase (Dengue virus type 2, UniProt P29990); test: Inhibition of Dengue virus polymerase; type: biochemical
influenza polymerase = influenza polymerase (Influenza A virus, UniProt P03431); test: Activity against influenza polymerase; type: biochemical
RSV polymerase = test: Activity against RSV polymerase; type: biochemical

Sequence of HCV polymerase (P27958 2421-3011): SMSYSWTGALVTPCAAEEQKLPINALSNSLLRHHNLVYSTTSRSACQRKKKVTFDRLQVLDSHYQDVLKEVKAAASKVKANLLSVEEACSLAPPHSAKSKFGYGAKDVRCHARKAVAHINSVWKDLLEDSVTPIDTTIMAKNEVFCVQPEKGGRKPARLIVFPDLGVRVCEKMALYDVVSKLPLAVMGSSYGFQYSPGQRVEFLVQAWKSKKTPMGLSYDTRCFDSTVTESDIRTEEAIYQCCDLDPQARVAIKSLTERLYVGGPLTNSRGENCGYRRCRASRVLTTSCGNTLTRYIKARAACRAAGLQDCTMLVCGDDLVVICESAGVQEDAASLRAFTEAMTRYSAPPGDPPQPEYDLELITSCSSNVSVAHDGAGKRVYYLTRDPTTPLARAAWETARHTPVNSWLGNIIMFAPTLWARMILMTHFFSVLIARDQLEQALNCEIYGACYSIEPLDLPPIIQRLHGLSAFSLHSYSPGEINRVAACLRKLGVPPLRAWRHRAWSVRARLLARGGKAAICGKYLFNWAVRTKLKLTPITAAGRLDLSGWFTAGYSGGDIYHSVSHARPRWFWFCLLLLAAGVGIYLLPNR
Sequence of Dengue virus polymerase (P29990 2492-3391): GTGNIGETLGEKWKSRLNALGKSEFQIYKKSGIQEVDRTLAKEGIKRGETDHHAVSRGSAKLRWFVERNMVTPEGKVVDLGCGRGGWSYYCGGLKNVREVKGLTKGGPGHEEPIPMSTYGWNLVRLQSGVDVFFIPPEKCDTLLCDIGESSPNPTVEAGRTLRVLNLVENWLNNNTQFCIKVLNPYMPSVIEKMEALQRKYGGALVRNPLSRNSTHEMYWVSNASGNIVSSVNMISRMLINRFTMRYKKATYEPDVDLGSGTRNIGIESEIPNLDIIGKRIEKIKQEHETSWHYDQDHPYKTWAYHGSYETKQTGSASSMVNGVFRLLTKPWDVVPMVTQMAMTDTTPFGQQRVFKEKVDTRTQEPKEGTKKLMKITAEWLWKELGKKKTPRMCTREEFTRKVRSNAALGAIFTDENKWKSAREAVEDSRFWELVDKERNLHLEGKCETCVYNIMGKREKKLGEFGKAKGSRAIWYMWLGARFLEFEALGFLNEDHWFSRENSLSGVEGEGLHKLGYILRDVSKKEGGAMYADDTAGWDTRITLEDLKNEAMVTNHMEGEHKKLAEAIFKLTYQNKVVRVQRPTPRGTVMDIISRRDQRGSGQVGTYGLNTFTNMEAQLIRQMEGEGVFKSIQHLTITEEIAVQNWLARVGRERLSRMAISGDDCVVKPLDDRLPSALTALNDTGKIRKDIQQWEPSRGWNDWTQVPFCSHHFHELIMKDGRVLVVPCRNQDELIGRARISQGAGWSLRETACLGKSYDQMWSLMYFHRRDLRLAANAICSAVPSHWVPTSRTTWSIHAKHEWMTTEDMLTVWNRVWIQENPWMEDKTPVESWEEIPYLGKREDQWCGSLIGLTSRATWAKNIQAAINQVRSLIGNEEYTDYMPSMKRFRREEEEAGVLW
Sequence of influenza polymerase (P03431 whole entry, looked up): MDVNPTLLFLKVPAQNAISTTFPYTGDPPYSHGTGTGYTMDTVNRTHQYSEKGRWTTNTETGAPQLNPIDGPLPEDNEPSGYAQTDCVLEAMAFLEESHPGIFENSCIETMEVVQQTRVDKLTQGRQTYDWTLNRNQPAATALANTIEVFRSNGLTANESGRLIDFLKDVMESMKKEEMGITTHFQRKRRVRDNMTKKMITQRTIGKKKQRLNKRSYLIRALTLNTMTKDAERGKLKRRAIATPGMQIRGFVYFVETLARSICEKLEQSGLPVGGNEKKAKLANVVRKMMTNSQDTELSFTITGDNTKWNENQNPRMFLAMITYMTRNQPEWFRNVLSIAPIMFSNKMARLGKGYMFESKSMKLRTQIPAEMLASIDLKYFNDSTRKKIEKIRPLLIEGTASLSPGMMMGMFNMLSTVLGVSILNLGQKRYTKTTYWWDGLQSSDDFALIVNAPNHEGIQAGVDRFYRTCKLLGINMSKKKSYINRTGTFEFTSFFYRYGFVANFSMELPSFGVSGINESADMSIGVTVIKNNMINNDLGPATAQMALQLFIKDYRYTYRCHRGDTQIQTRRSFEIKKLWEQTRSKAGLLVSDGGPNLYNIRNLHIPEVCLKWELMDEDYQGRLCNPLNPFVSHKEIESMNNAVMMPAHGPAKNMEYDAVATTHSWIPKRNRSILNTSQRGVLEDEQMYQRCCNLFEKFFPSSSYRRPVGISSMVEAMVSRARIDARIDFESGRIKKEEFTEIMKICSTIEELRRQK

C[C@H](NP(=O)(OC[C@@]1(N=[N+]=[N-])O[C@@H](n2ccc(=O)[nH]c2=O)[C@H](O)[C@@H]1O)Oc1cccc2ccccc12)C(=O)OCc1ccccc1 (stereo partly drawn) [Compound I-1, benzyl ((((2R,3S,4R,5R)-2-azido-5-(2,4-dioxo-3,4-dihydropyrimidin-1(2H)-yl)-3,4-dihydroxytetrahydrofuran-2-yl)methoxy)(naphthalen-1-yloxy)phosphoryl)-L-alaninate]
EC50 ([1]; Zika virus, ZIKV strain MR766, human Huh-7 or mouse MEF cells): 0.74 µM | antiviral inhibition potency (EC50), in words ([1]; summary statement): submicromolar | CC50 at 3 day ([2]; cytotoxicity column of the ZIKV assay, read-out: ZIKV CC50): > 10 µM | CC50 at 3 day ([2]; summary statement, cytotoxicity in cell culture, read-out: Huh-7 cell CC50): > 100 µM | EC50 [3]: 0.42 µM | CC50 [4]: > 10 µM | EC50 [5]: 0.33 µM | inhibition of human RNA polymerase I activity (reporter gene) (human RNA polymerase I [6]): did not inhibit | inhibition of human RNA polymerase II activity (reporter gene) (human RNA polymerase II [7]): did not inhibit | inhibition of human RNA polymerase III activity (reporter gene) (human RNA polymerase III [8]): did not inhibit | solubility [9]: ≤ 10 µM | CC50 [10]: > 10 µM

[N-]=[N+]=N[C@]1(COP(=O)(O)OP(=O)(O)OP(=O)(O)O)O[C@@H](n2ccc(=O)[nH]c2=O)[C@H](O)[C@@H]1O [Compound 4AUTP, 4′-azido-uridine triphosphate]
IC50 [11]: > 1000 µM | IC50 (human DNA polymerase α): > 1000 µM | IC50 (human DNA polymerase β): > 1000 µM | IC50 (human RNA polymerase I [12]): > 1000 µM | IC50 (human RNA polymerase II [13]): > 1000 µM | IC50 (human RNA polymerase III [14]): > 1000 µM | inhibition of HCV polymerase (HCV polymerase): inhibition | inhibition of Dengue virus polymerase (Dengue virus polymerase): inhibition | activity against influenza polymerase (influenza polymerase): not active | activity against RSV polymerase (RSV polymerase): not active
